Measurements reported in a melting point compilation (Tetko et al.; mined from patent text by program, amines drawn as free bases though some values may be those of a salt).

Row | SMILES | melting point
1 | O=C(O)c1cn(Cc2cnsn2)c2nc(Cl)c(F)cc2c1=O | 231 to 232 °C
2 | COc1ccc(-n2ccc(O)n2)cc1 | 167 to 170 °C
3 | Nc1cccc([C@H]2C[C@H]2NC(=O)Nc2ccc(Cl)cn2)c1 (racemic) | 178 °C
4 | CC(C)CC1Cc2cc(OCC(=O)O)c(Cl)c(Cl)c2C1=O (configuration not stated) | 192 °C
5 | O=C(Cc1ccc(OCc2ccccc2C(=O)O)cc1)NC1(C(=O)O)Cc2ccc(-c3ccc(Cl)cc3)cc2C1 (configuration not stated) | 209 to 211 °C
6 | COC(=O)c1ccc(Cc2csc3ccc(NC(=O)OC4CCCC4)cc23)c(OC)c1 | 163 to 164 °C
7 | CCN(CC)C(=O)O[C@@H]1[C@@H](c2ccccc2)Nc2c(ccn3c(C)c(C)nc23)[C@H]1OC | 97 to 98 °C
8 | N#Cc1cn(-c2c(Cl)cc(C(F)(F)F)cc2Cl)nc1C(F)(F)F | 116 to 118 °C
9 | CCOC(=O)Cc1cc2ccc(Br)cc2[nH]1 | 67 to 69 °C
10 | O=c1c2c(Cc3ccccc3C(F)(F)F)n[nH]c2c2cccnc2n1-c1ccccc1 | 292 to 294 °C
11 | C#CCOc1cc(C(=O)O)cc(S(N)(=O)=O)c1-c1ccccc1 | 154 to 155 °C
12 | CNCCCNCCCSP(=O)(O)O | 115 to 120 °C
13 | CCCCCCCCCCCCN(Cc1cccnc1)S(C)(=O)=O | 43 to 44 °C
14 | O=C(Cc1ccncc1)[N+]1([O-])CCC(C2c3ccc(Cl)cc3CCc3cccnc32)CC1 (configuration not stated) | 125 to 126 °C
15 | O=[N+]([O-])c1cc(OCC2=CCCSC2)c(Cl)cc1F | 91 to 94 °C
16 | CN(C)C1CCc2oc3ccc(NC(=O)c4ccc(F)cc4)cc3c2C1 (configuration not stated) | 137 to 138 °C
17 | COC(=O)c1cc(C(=O)NCCF)c2cc(Cc3ccc(F)cc3)cnc2c1O | 216 to 217 °C
18 | CCOC(=O)Nn1cccc1C(=O)c1ccccc1F | 78 to 80 °C
19 | COc1ccccc1CC(c1sccc1C)N(C)C=O (configuration not stated) | 80 to 83 °C
20 | CS(=O)(=O)NCc1ccc2[nH]cc(CCN3C(=O)c4ccccc4C3=O)c2c1 | 162 to 165 °C
21 | CC(C)Sc1cc(C(C)(C)C)c(O)c(C(C)(C)C)c1 | 80 to 82 °C
22 | CC(C)N[C@@H]1CCc2c(ccc(OCc3ccccc3)c2CO)[C@H]1O (relative stereo) | 138 to 139 °C
23 | O=c1ncc(Cl)cn1C(SCc1ccccc1)c1ccccc1 (configuration not stated) | 118 °C
24 | CCOc1ccc(/C=C/c2nc3c(c(=O)n(CC)c(=O)n3CC)n2C)cc1 | 185 to 186 °C
25 | COc1cc2c(cc1Nc1ncc(Cl)c(N[C@@H]3CCCC[C@H]3NS(C)(=O)=O)n1)CCN(CCS(C)(=O)=O)CC2 | 216 to 235 °C
26 | Cc1cc(-c2cc(C(F)F)n3ncc(-c4ccncc4)c3n2)ccc1C(F)(F)F | 236 °C

Row | SMILES | melting point
27 | O=C(O)C(Cc1ccccc1)C(=O)NCc1cccc2ccccc12 (configuration not stated) | 142 to 145 °C
28 | COc1ccc(N2CCN(c3c(C)c(C)c4c(c3C)CC3(CCCC3)O4)CC2)cc1 | 137 to 139 °C
29 | O=C(Nc1ccc(C(CC2CCCC2)C(=O)Nc2ccccn2)cc1)c1cccnc1 (configuration not stated) | 160 to 163 °C
30 | OCc1nc2ccc(OC(F)(F)F)cc2[nH]1 | 192 to 194 °C
31 | Cc1nc2c3c(ccn2c1C)C(O)CC(c1ccccc1)N3 (configuration not stated) | 210 to 212 °C
32 | CCOP(=O)(OCC)c1cnc2ccc(C(F)(F)F)cc2c1 | 69 °C
33 | O=C(O)c1ccc2c(c1)Nc1ccccc1S2 | > 235 °C
34 | CN1CCC(Nc2ccccc2OCc2ccccc2)CC1 | 90 to 95 °C
35 | CCOC(=O)c1cn(-c2ccc(Cl)cc2)c(-c2ccc(Cl)cc2Cl)n1 | 143 to 144 °C
36 | CC(C)(C)OC(=O)N1CCCC(c2ccc3c(c2)C2(CO3)C(=O)N(Cc3ccc(C(F)(F)F)o3)c3ccccc32)C1 (configuration not stated) | 59 to 61 °C
37 | O=C(NC1CCCCC1O)c1ccccc1 (configuration not stated) | 172 to 173 °C
38 | CN1C(=O)C(NC(=O)CCCCc2ccccc2)N=C(N2CCCCCC2)c2ccccc21 (configuration not stated) | 140 to 141 °C
39 | O=C(SCCC(=O)N1CCC[C@H]1C(=O)O)c1ccccc1 | 101 to 102 °C
40 | CC(=O)Nc1ccccc1C(=O)C=Cc1ccncc1 | 130 °C
41 | COc1cc2c(cc1CCCCO)oc1cc(-c3ccccc3Cl)c3c(c12)C(=O)NC3=O | 158 to 162 °C
42 | CCCCCNC(=NC#N)Nc1cccnc1 | 130 to 132 °C
43 | CCSC1(SC)CCC2C3CCC4=CC(=O)C=CC4(C)C3(F)C(OC(C)=O)CC21C (configuration not stated) | 140 to 142 °C
44 | Nc1nnc(-c2cc(Cl)cc(Cl)c2Cl)c(N)n1 | 232 to 235 °C
45 | CC=CCn1c(C)c(C)c2cnnc(OCc3cc(F)cc(F)c3)c21 | 78 to 84 °C
46 | COc1cn(-c2ccc(O)cc2F)nc(-c2ccnn2-c2ccccc2)c1=O | 223 to 224 °C
47 | O=C1C(=CN2CCOCC2)c2ccccc2N1c1cccc(Cl)c1 | 130 to 132 °C
48 | Nc1cc2c(cc1C(=O)c1ccccc1)OCO2 | 160 to 161 °C
49 | CCc1c(-c2cc(C)c(OC)c(C)c2)[nH]c2ccccc12 | 126 to 127 °C
50 | CSC1=NCC2CN=C(c3ccccc3F)c3cc(Cl)ccc3N12 (configuration not stated) | 163 to 165 °C
51 | CCc1nnc2ccc(-c3ccccc3)nn12 | 133 to 135 °C
52 | C#Cc1ccc(NC=C(C(=O)NCCC)C(=O)c2ccccc2Cl)cc1 | 95 to 96 °C

Row | SMILES | melting point
53 | Oc1ccc(Cn2cc[nH]c2=S)cc1F | 161 to 165 °C
54 | CC(C)(C)OC(=O)N1CC=C(c2ccc(N)cc2F)CC1 | 96 to 98 °C
55 | O=C(NS(=O)(=O)C=Cc1ccccc1)N1CCC(CCCc2ccccc2)CC1 | 125 to 127 °C
56 | Cc1ccc(C=C2CSCC3=C2N(CC(F)(F)F)NC3c2ccc(C)cc2)cc1 (configuration not stated) | 168 to 178 °C
57 | CC1CC=C(c2nnn[nH]2)CN1CC(=O)O (configuration not stated) | 136 to 138 °C
58 | CC(=O)Nc1cccc(-c2ccc(C)c(COc3cccc4ccc(C)nc34)c2C)c1 | 197 to 199 °C
59 | CCOC(=O)c1nc(NC)sc1-c1nc2ccccn2c1C | 183 to 185 °C
60 | CCCc1cc(F)c2oc(Cc3ccc(OC)cc3)c(C)c2c1OC(C)=O | 85 to 88 °C
61 | COc1ccccc1C1NC(=O)C(C)S1 (configuration not stated) | 187 to 188 °C
62 | CCO[C@@H]1C[C@@H]2CN(C(=O)[C@@H](NC(=O)[C@H](C)NC)C3CCC(F)(F)CC3)[C@H](C(=O)N[C@@H]3CCOc4ccccc43)CN2C1 | 179 °C
63 | Nc1nccnc1-c1cc(Cl)cc(Cl)c1Cl | 142 to 143 °C
64 | Cc1c(F)cccc1C(=O)Nc1ccc(C(=O)N2Cc3ccnn3Cc3ccccc32)cc1 | 245 to 250 °C
65 | COc1cccc(-c2ccnc3ncnn23)c1 | 163 to 165 °C
66 | CC(C)(C)CCn1c(=O)c(=NNc2ccccc2)c(=O)n(-c2ccccc2F)c2ccccc21 | 112 to 114 °C
67 | CCC1(CC)O[C@@H](C(=O)O)[C@H](c2ccccc2)N1C(=O)OC(C)(C)C | 185 °C
68 | COC(=O)C=Cc1ccc2c(ccn2S(=O)(=O)c2ccccc2)c1 | 134 to 136 °C
69 | COc1cc(C(C)=O)ccc1SCCCCl | 53 to 55 °C
70 | CCN(CC)c1ccc2c(c1)Oc1cc(OC)c(N(c3ccccc3)c3ccccc3)cc1C2c1ccccc1C(=O)OC (configuration not stated) | 117 to 119 °C
71 | O=c1[nH]cc2c(c1-c1ccc(O)cc1)Nc1ccccc1S2 | > 300 °C
72 | COc1nncc(-c2cccc(C(F)(F)F)c2)n1 | 95 to 97 °C
73 | NCCOc1cccc2c1c1cccc(F)c1n2Cc1ccccc1 | 122 to 123 °C
74 | O=C1CCCCCC1n1nc(-c2c(-c3ccccc3)nn3ccccc23)ccc1=O (configuration not stated) | 112 to 114 °C
75 | C1=Cn2cnnc2Cc2ccsc21 | 146 °C
76 | O=C(COc1ccccc1)Nc1c(Cl)ccc2nc(N3CC[C@@H](O)C3)ccc12 | 233 to 235 °C
77 | CC(C)(NC=O)c1cc(Cl)cc(Cl)c1 | 115 to 117 °C
78 | CC(c1oc2ccccc2c(=O)c1-c1cccc(F)c1)n1nc(-c2cccc3[nH]ncc23)c2c(N)ncnc21 (configuration not stated) | 231 to 233 °C

Row | SMILES | melting point
79 | COc1cc(CN2CCN(C(=O)c3cc4ccccc4oc3=O)CC2)cc(OC)c1OC | 171 to 173 °C
80 | NC(=O)c1c(-c2ccc(Cl)cc2)csc1N | 150 to 151 °C
81 | CC(=O)c1c2cnnc-2sn1C | 130 to 131 °C
82 | Cc1oc(C)c2c1C(=O)c1c(O)ccc(O)c1C2=O | 255 to 256 °C
83 | COc1ccc(-c2ccc(C#CC(=O)O)s2)cc1C(C)(C)C | 124 to 126 °C
84 | COc1c(CC#N)c2c(c3c1OC(C)(C)C3)C(c1cccc(C(=O)NC3CCCCNC3=O)c1)=NC(C)(C)C2 (configuration not stated) | 130 to 132 °C
85 | CCCCC1(CC)OCc2c1cnc(C)c2OCC(=O)O (configuration not stated) | 193 °C
86 | CCOC(=O)CC[C@H](NC(=O)c1ccc(NS(=O)(=O)c2cc3c(cc2Br)CCc2nc(N)[nH]c(=O)c2-3)cc1)C(=O)OCC | 175 °C
87 | CCc1nc2ccccc2c(=O)o1 | 83.9 °C
88 | Cc1ccc(-c2c(Cl)ncn2-c2ccc(S(C)(=O)=O)cc2)cc1 | 182 °C
89 | COCCN(C)CC1=Cc2cc(S(N)(=O)=O)sc2S(=O)(=O)N1C | 127 to 129 °C
90 | CCc1c(Oc2cnc(N)nc2N)cc(C)c2sccc12 | 181 °C
91 | CC(=C=CC(=O)O)c1ccc(Cl)cc1 | 146 to 148 °C
92 | COc1ccc2c(c1)sc1nc(Nc3ccccc3)nc(=N)n12 | 225 to 226 °C
93 | N#CC1=C(c2cccs2)Nc2n[nH]cc2C1c1cccc(Cl)c1Cl (configuration not stated) | 232 °C
94 | CCc1cc(C)cc(CC)c1C1C(=O)C2CC(C3OCCCO3)CC2C1=O (configuration not stated) | 100 to 101 °C
95 | Fc1ccccc1-c1nc(Cl)nc2ccccc12 | 141 °C
96 | Brc1ccc(Cc2cc3ccccc3[nH]2)cc1 | 136 °C
97 | O=C(Nc1nc2ccc(Sc3cnc4ncc(NCc5ccccc5)cn34)cc2s1)C1CC1 | > 260 °C
98 | COc1cccc(C2CCc3cc(OC)ccc3C2=O)c1 (configuration not stated) | 81 to 82 °C
99 | O=C1NCC=NN1c1cc(Cl)c(Cc2ccc(Cl)cc2)c(Cl)c1 | 199 to 200 °C
100 | COc1ccc(C=C2CCc3cc(OCCn4ccnc4)ccc3C2=O)cc1 | 132 to 133 °C
101 | CN(C)CC/C=C1/c2cc(Br)ccc2COc2ccccc21 | 91 to 100 °C
102 | O=COCCCN1C(=O)c2ccccc2C1=O | 68 to 70 °C
